Measured values reported in PMC12040169 (PLOS Biology, 2025).

Assay: in vitro
Settings: human, hela cells, % viability

Point of comparison: `Cc1ccc2cc(CNc3ccc(-c4nc5cc(C)ccc5[nH]4)cc3)c(O)nc2c1` [CBK286156], viability at 28.5 h, 10 µM 70.8%. Against it:
- FC(F)(F)c1ccnc(OCCN2CCOCC2)c1 [CBK113286] — higher, 97.1%
- COc1ccc(N2C(=O)C(CC(=O)Nc3ccc(F)cc3)N(Cc3ccc4c(c3)OCO4)C2=O)cc1 (stereo not shown) [CBK266515] — higher, 97%
- COc1ccc2[nH]c3c(c2c1)CCOC31CCN(CCC(F)=C(F)F)CC1 [CBK040118] — higher, 103%
- CCOC(=O)Cn1nc(C)c(Cc2c(Cl)cccc2Cl)c1CC [CBK113223] — higher, 85%
- CCCn1c(NCc2cccc(OC)c2O)nc2ccccc21 [CBK133763] — higher, 96.4%
- O=C(CSc1nnc2sc3ccccc3n12)N1N=CCC1c1ccccc1 (stereo not shown) [CBK266527] — higher, 87.1%
- Cc1nc(C(Cc2ccsc2)NC(=O)c2ccnn2C)sc1C (stereo not shown) [CBK284778] — higher, 87.6%
- C=CCNC(=O)C1CN(C)CC12CCc1ccccc1C(=O)N2 (stereo not shown) [CBK282401] — higher, 83%
- Cc1nc(COc2ccccc2)nc(O)c1Cl [CBK057810] — higher, 95.2%
- Cc1c(C)n(Cc2ccccc2)c2ccc(C(=O)OCCCN(C)C)cc12 [CBK087693] — higher, 91.7%
- CC(C)(C)c1ccc(C(=O)N2CC[C@H]3NC(=O)N(Cc4ccccc4)C(=O)[C@H]32)cc1 [CBK289294] — higher, 86%
- COc1cc(CNC(=O)Cn2nnc(-c3ccc(CN4CCC(C)CC4)cc3)n2)cc(OC)c1OC [CBK144170C] — higher, 96.5%
- Cc1cc2ncc(-c3[nH]ncc3[N+](=O)[O-])cn2n1 [CBK269106] — higher, 98.1%
- CCS(=O)(=O)N1CCN(C(=O)c2ccc3nc(C)c(N(CCOC)Cc4ccc(OC)cc4)n3c2)CC1 [CBK146153] — higher, 98.2%
- CCOC(=O)c1cnc2ccc(F)cc2c1NCc1ccco1 [CBK265834] — higher, 97%
- CC(C)C(CNCc1ccn(C)c1)c1ccnn1C (stereo not shown) [CBK304822] — higher, 91%
- Cc1c(C(=O)N2CCCC2C(N)=O)nnn1Cc1ccc(F)cc1F (stereo not shown) [CBK305925] — higher, 94.5%
- CS(=O)(=O)N1C2CCC(C2)[C@H]1COc1ccc(F)cc1 (stereo partly shown) [CBK285279] — higher, 108%
- Cc1cccc(/N=C2\NC(=O)C(Cc3ccc(C)c(Cl)c3)S2)n1 (stereo not shown) [CBK265597] — higher, 106%
- O=C(/C=C/c1ccco1)NC(=S)Nc1ccc(O)c(-c2nc3ccccc3s2)c1 [CBK264344] — higher, 85.7%
- CCc1nn(CC(=O)NCC2CC2)c(=O)c2cc3sccc3n12 [CBK284055] — higher, 90.5%
- O=C(NCc1cccs1)c1ccc(-c2ccoc2)nc1 [CBK156269] — higher, 106%
- CC(=O)Nc1ccc(-c2csc(N3CCN(C)CC3)n2)cc1 [CBK305865] — higher, 93.6%
- COc1ccc(Nc2ccc(-c3cccc(OC(F)(F)F)c3)cn2)cn1 [CBK037022] — higher, 100%
- CCOc1ccccc1NC(=O)CCCC(=O)O [CBK275986] — higher, 98.9%
- CCC1CCCCN1C(=O)c1sc2ncccc2c1N (stereo not shown) [CBK081410] — higher, 112%
- Cn1ccnc1C1(O)CC2CCC(C1)N2C(=O)Nc1ccccc1F (stereo not shown) [CBK284178] — higher, 88.2%
- CCc1nc2ccc(C(=O)N3CCCCC3)cn2c1N(C)CCC(C)C [CBK146065] — higher, 96.3%
- NC(=O)c1ccc(NC(=O)COc2ccc3ccccc3c2)cc1 [CBK263738] — higher, 101%
- COc1ccc2nc(NC(=O)c3cccc(N4C(=O)CCC4=O)c3)sc2c1 [CBK287351] — higher, 108%
- O=S(=O)(Nc1cccc(Cl)c1Cl)c1ccc(Cl)c(Cl)c1 [CBK017446] — higher, 79.2%
- O=C(O)C1CCCCC1C(=O)N1CCN(Cc2cccc(Cl)c2)CC1 (stereo not shown) [CBK270330] — higher, 85%
- Cc1ccc(-c2nc3ccccc3[nH]2)cc1 [CBK085933] — higher, 89.9%
- O=C(O)c1cnc(NCC2CCCCCC2)[nH]c1=O [CBK023792] — higher, 88.8%
- CCCCSc1cc(C)nc2ncnn12 [CBK021443] — higher, 105%
- Cc1ccc(-c2nnc(CNC(=O)Cc3ccc(F)cc3)o2)s1 [CBK284645] — higher, 91.3%
- CCSc1nc(N2CCNC[C@@H]2C)ccc1C(F)(F)F [CBK003986A] — higher, 96.1%
- Oc1cc2cccnc2nc1-c1ccc2c(c1)CCO2 [CBK073698] — higher, 76%
- Cn1c(=O)c2c(ncn2CC(=O)Nc2ccc(C#N)cc2)n(C)c1=O [CBK133466] — higher, 90.9%
- COc1ccc(OCCC(=O)O)cc1 [CBK057706] — higher, 86.2%
- Cc1c(C(=O)O)c(-c2ccc(Cl)cc2)cn1CCO [CBK286959] — higher, 87%
- CCNS(=O)(=O)c1ccc(NC(=O)Nc2cc(C)ccc2OC)cc1 [CBK266850] — higher, 106%
- CSC(C)C(=O)N(C)C1CCN(c2ncnc3ccccc23)CC1 (stereo not shown) [CBK305300] — higher, 83.4%
- Cc1cc(-c2cn3cc(C(=O)NCCO)nc3c(=O)n2C)c(C)o1 [CBK307288] — higher, 89.4%
- Cc1cc(NC(=O)OCc2cccnc2C)c2ccccc2n1 [CBK200129] — higher, 95.9%
- Cc1nn(C)cc1-c1cncn1CC(C)N1CCCCC1 (stereo not shown) [CBK281781] — higher, 92.1%
- CCc1nnc(NS(C)(=O)=O)s1 [CBK062197] — higher, 93%
- O=C(CCn1cccn1)NCC1CCCOC1 (stereo not shown) [CBK281474] — higher, 110%
- COc1ccc(C(C)C)cc1-c1cnc2nc(O)ccc2c1 [CBK081286] — higher, 94.1%
- COc1cccc(NC(=O)NCCc2ccncc2)c1 [CBK270022] — higher, 90.3%
- O=C(O)CSc1nnc2ccc(C(F)(F)F)cn12 [CBK018930] — higher, 81.3%
- CCCn1ccnc1SCC(=O)Nc1ccc(N(C)C)cc1 [CBK304996] — higher, 112%
- COc1cccc(C2(NC(=O)CCn3nccc3C)CCCC2)c1 [CBK283601] — higher, 101%
- Nc1ccc2ccc(-c3ccccc3)nc2n1 [CBK061865] — higher, 97%
- CSc1cccc(NC(=S)N2CCCCC2CCN2CCOCC2)c1 (stereo not shown) [CBK028765] — higher, 83.9%
- O=C(O)CCC(=O)N1c2ccccc2CC1c1ccccc1 (stereo not shown) [CBK286860] — higher, 91.1%
- Cc1cc(O)cc(=O)n1Cc1cccnc1 [CBK291123] — higher, 112%
- Nc1nc2c(cnn2[C@H]2C[C@@H](O)[C@@H](CO)O2)c(=O)[nH]1 [CBK201223] — higher, 101%
- COc1cc(-c2cnc(N)c(NCc3ccncc3)n2)cc(OC)c1OC [CBK063646] — higher, 94.8%
- COc1cc(/C=C2\SC(=N)NC2=O)cc(Cl)c1OS(=O)(=O)c1ccc(NC(C)=O)cc1 [CBK264502] — higher, 107%
- Cc1cc(NS(=O)(=O)c2cc(C(F)(F)F)cc(C(F)(F)F)c2)n(C)n1 [CBK067261] — higher, 105%
- CC(C)(C)OC(=O)NCCNCc1ccccc1C(F)(F)F [CBK056695] — higher, 80%
- Cc1csc(Sc2cc(N3CCCC3)ncn2)n1 [CBK093745] — higher, 100%
- COC(=O)c1ccc2c(=O)n(CC(C)O)c(SC)nc2c1 (stereo not shown) [CBK305018] — higher, 88%
- COc1cccc(/C=C/C2=NN(c3cccc(F)c3)C(c3cccc(OC)c3OC)C2)c1OC (stereo not shown) [CBK260983] — higher, 104%
- Cn1ncc2c(NCCN3CCOC3=O)nc(C(C)(C)C)nc21 [CBK307511] — higher, 75.3%
- COc1ccc(C)cc1S(=O)(=O)N(CC(=O)Nc1ccccc1C)c1ccc(Cl)cc1 [CBK267995] — higher, 90.1%
- CN(C1=NS(=O)(=O)c2ccccc21)c1ccc(OC(=O)C2CC(=O)N(c3ccccc3)C2)cc1 (stereo not shown) [CBK263849] — higher, 87%
- Cc1nnc(-c2cccc(S(=O)(=O)n3ccn(-c4cccc(C(F)(F)F)c4)c3=O)c2)o1 [CBK106592] — higher, 91.9%
- Cc1ccc(O)c(Nc2ncnc3ccccc23)c1 [CBK266020C] — higher, 93.2%
- COc1ccc(CN2CCN(Cc3ccccc3[N+](=O)[O-])CC2)c(OC)c1 [CBK263340] — higher, 91%
- CC1CCc2noc(C3CCN(C(=O)c4ccnn4C)CC3)c2C1 (stereo not shown) [CBK285232] — higher, 105%
- Cc1cc(NS(=O)(=O)c2ccc(Nc3nc(-c4ccc(Cl)cc4Cl)cs3)cc2)no1 [CBK267298] — higher, 104%
- CNS(=O)(=O)c1ccc(NC(=O)c2cc(-c3cccnc3)nc3ccc(Br)cc23)cc1 [CBK267776] — higher, 95.5%
- COc1cc(CN2CCN(C(=O)c3cccc(Cl)c3)CC2)cc(OC)c1OC [CBK074530] — higher, 97.1%
- Cc1nc(C)c(-c2csc(Nc3ccc(O)cc3C)n2)s1 [CBK267346] — higher, 98.7%
- CCNC(=O)N1CC2(CCN(CC3COc4ccccc4O3)CC2)c2ccccc21 (stereo not shown) [CBK143944] — higher, 102%
- C#CCNC(=O)[C@@H]1Cc2cn(Cc3c(C)noc3C)c3cccc(c23)[C@H](CC(C)C)N1 [CBK289425] — higher, 93.7%
- Cc1ccc(-c2nnc(CNC(=O)c3cccc(-c4ccc(F)cc4)c3)o2)s1 [CBK286300] — higher, 109%
- CN(C(=O)c1c[nH]nc1-c1ccc(CNC(=O)Cc2ccc(F)cc2)cc1)c1ccccc1 [CBK285599] — higher, 95.9%
- CC(=O)Nc1ccc(OCC(O)Cn2cnc3ncccc3c2=O)cc1 (stereo not shown) [CBK304541] — higher, 86.4%
- Cc1ccc(Nc2ncc(C(=O)NCCCN3CCN(c4cccc(Cl)c4)CC3)c3ccccc23)cc1Cl [CBK291251] — higher, 90.1%
- CCCc1nnc2sc(C3CCC(=O)N(C(C)C)C3)nn12 (stereo not shown) [CBK306942] — higher, 108%
- O=C(O)CCN1C(=O)COc2ccc(Cl)cc21 [CBK287192] — higher, 107%
- N#Cc1ccsc1NC(=O)CN1CCN(c2cccc(Cl)c2)CC1 [CBK306192] — higher, 81.1%
- COc1ccc(CNC(=O)CN2CCCC(Cn3cncn3)C2)cc1 (stereo not shown) [CBK305339] — higher, 88.9%
- O=C(NCC1CCCO1)c1ccccc1Sc1ccc([N+](=O)[O-])cc1Cl (stereo not shown) [CBK266041] — higher, 88.8%
- O=C(NC1CCC1)c1cn2cc(-c3cccs3)n(CC3CC3)c(=O)c2n1 [CBK306863] — higher, 82.9%

Same assay, conditions: human, hela cells, % viability, bulk resorufin, single well

Point of comparison: `CCOc1ccc(N2C(=O)/C(=C/c3ccc(Br)cc3)C(=O)NC2=S)cc1` [CBK263305], viability at 28.5 h, 10 µM 92.7%. Against it:
- Cc1cccc(OP(=O)(O)Oc2cccc(C)c2C)c1C [CBK261316] — lower, 91.7%
